The subject of the test is TFEB. The experiment in a line: TFEB Nuclear Translocation Assay. The test is classed as cell-based. Conditions: read-out: EC50 of TFEB activation.
The EC50 is the concentration giving half of the maximal effect. `CC(C)S(=O)(=O)c1ccc(S(=O)(=O)n2nc(N3CCN(c4ncc(F)cn4)C[C@H]3C3CC3)c3c(Cl)cccc32)cc1` (single isomer, unassigned) [Compound 61]: the concentration for a half-maximal effect (EC50) was at most 1000 nM.

Turning to `CC(C)S(=O)(=O)c1ccc(S(=O)(=O)n2nc(N3CCN(c4ncc(F)cn4)C[C@H]3C(F)(F)F)c3c(Cl)cccc32)cc1` (single isomer, unassigned) [Compound 69], the EC50 is at most 1000 nM.

Turning to `CC(C)S(=O)(=O)c1ccc(S(=O)(=O)n2nc(N3CCN(C(=O)C(F)(F)F)C[C@H]3C(F)(F)F)c3c(Cl)cccc32)cc1` (single isomer, unassigned) [Compound 71], the EC50 was at most 1000 nM.

For `CC(C)S(=O)(=O)c1ccc(S(=O)(=O)n2nc(N3CCN(c4ncc(F)cn4)C[C@H]3C(F)(F)F)c3c(F)cccc32)cc1` (single isomer, unassigned) [Compound 73], the EC50 is at most 1000 nM.

On to `CC(C)S(=O)(=O)c1ccc(S(=O)(=O)n2nc(N3CC=C(Cl)C[C@H]3C(F)(F)F)c3c(Cl)cccc32)cc1` (single isomer, unassigned) [Compound 83], for which the EC50 was at most 1000 nM.

In the case of `CC(F)(F)c1ccc(S(=O)(=O)n2nc(N3CCN(c4ncc(F)cn4)C[C@@H]3C(F)(F)F)c3c(Cl)cccc32)cc1` (single isomer, unassigned) [Compound 107], the EC50 is at most 1000 nM.

Take `CC(C)S(=O)(=O)c1ccc(S(=O)(=O)n2nc(N3CCC[C@H]3C(F)(F)F)c3c(Cl)cccc32)cc1` (single isomer, unassigned) [Compound 110]: the EC50 was at most 1000 nM.

As for `CC(F)(F)c1ccc(S(=O)(=O)n2nc(N3CCN(c4ncc(F)cn4)C[C@@H]3C(C)(C)F)c3c(Cl)cccc32)cc1` (single isomer, unassigned) [Compound 122], the EC50 is at most 1000 nM.

With `CC(C)(C)S(=O)(=O)c1ccc(S(=O)(=O)n2nc(N3CCN(c4ncc(Cl)cn4)CC34CC4)c3c(Cl)cccc32)s1` [Compound 1, 1-[(5-tert-butylsulfonyl-2-thienyl)sulfonyl]-4-chloro-3-[7-(5-chloropyrimidin-2-yl)-4,7-diazaspiro [2.5]octan-4-yl]indazole], the 50% effective concentration (EC50) is at most 1000 nM.

In the case of `CC(C)S(=O)(=O)c1ccc(S(=O)(=O)n2nc(N3CCN(c4ncc(Cl)cn4)CC34CC4)c3c(Cl)cccc32)cc1` [Compound 2, 4-chloro-3-(7-(5-chloropyrimidin-2-yl)-4,7-diazaspiro [2.5]octan-4-yl)-1-((4-(isopropylsulfonyl)phenyl)sulfonyl)-1H-indazole], the EC50 is at most 1000 nM.

As to `CC(C)S(=O)(=O)c1ccc(S(=O)(=O)n2nc(N3CCN(c4ncc(F)cn4)CC34CC4)c3c(Cl)cc(F)cc32)cc1` [Compound 3, 4-chloro-6-fluoro-3-(7-(5-fluoropyrimidin-2-yl)-4,7-diazaspiro [2.5]octan-4-yl)-1-((4-(isopropylsulfonyl)phenyl)sulfonyl)-1H-indazole], the EC50 was at most 1000 nM.

In the case of `CC(C)S(=O)(=O)c1cccc(S(=O)(=O)n2nc(N3CCN(c4ncc(Cl)cn4)CC34CC4)c3c(Cl)cccc32)c1` [Compound 4, 4-chloro-3-[7-(5-chloropyrimidin-2-yl)-4,7-diazaspiro [2.5]octan-4-yl]-1-(3-isopropylsulfonylphenyl) sulfonyl-indazole], the concentration giving a half-maximal response (EC50) is at most 1000 nM.

With `CC(C)S(=O)(=O)c1ccc(S(=O)(=O)n2nc(N3CCN(c4ncc(Cl)cn4)CC3C3CC3)c3c(Cl)cccc32)s1` (centres unmarked) [Compound 5, 4-chloro-3-[4-(5-chloropyrimidin-2-yl)-2-cyclopropyl-piperazin-1-yl]-1-[(5-isopropylsulfonyl-2-thienyl)sulfonyl]indazole], the 50% effective concentration (EC50) was at most 1000 nM.

Regarding `CC(C)S(=O)(=O)c1ccc(S(=O)(=O)n2nc(N3CCN(CC(F)(F)F)CC34CC4)c3c(Cl)cccc32)s1` [Compound 6, 4-chloro-1-[(5-isopropylsulfonyl-2-thienyl)sulfonyl]-3-[7-(2,2,2-trifluoroethyl)-4,7-diazaspiro [2.5]octan-4-yl]indazole], the EC50 was at most 1000 nM.

Turning to `CC(C)S(=O)(=O)c1ccc(S(=O)(=O)n2nc(N3CCOCC34CC4)c3c(Cl)cccc32)s1` [Compound 7, 4-[4-chloro-1-[(5-isopropylsulfonyl-2-thienyl)sulfonyl]indazol-3-yl]-7-oxa-4-azaspiro [2.5]octane], the EC50 was at most 1000 nM.

For `CC(C)S(=O)(=O)c1ccc(S(=O)(=O)n2nc(N3CCC(=O)CC34CC4)c3c(Cl)cccc32)s1` [Compound 8, 4-[4-chloro-1-[(5-isopropylsulfonyl-2-thienyl)sulfonyl]indazol-3-yl]-4-azaspiro [2.5]octan-7-one], the concentration for a half-maximal effect (EC50) is at most 1000 nM.

Turning to `CC(C)S(=O)(=O)c1ccc(S(=O)(=O)n2nc(N3CCN(C(=O)C(F)(F)F)CC34CC4)c3c(Cl)cccc32)s1` [Compound 9, 1-[4-[4-chloro-1-[(5-isopropylsulfonyl-2-thienyl)sulfonyl]indazol-3-yl]-4,7-diazaspiro [2.5]octan-7-yl]-2,2,2-trifluoro-ethanone], the 50% effective concentration (EC50) is at most 1000 nM.

On to `CC(C)S(=O)(=O)c1ccc(S(=O)(=O)n2nc(N3CCN(c4ncc(F)cn4)CC34CC4)c3c(Cl)cccc32)cc1` [Compound 10, 4-chloro-3-[7-(5-fluoropyrimidin-2-yl)-4,7-diazaspiro [2.5]octan-4-yl]-1-(4-isopropylsulfonylphenyl) sulfonyl-indazole], for which the EC50 was at most 1000 nM.

`CC(C)S(=O)(=O)c1ccc(S(=O)(=O)n2nc(N3CCC(F)CC34CC4)c3c(Cl)cccc32)s1` (centres unmarked) [Compound 11, 4-chloro-3-(7-fluoro-4-azaspiro [2.5]octan-4-yl)-1-[(5-isopropylsulfonyl-2-thienyl)sulfonyl]indazole]: the EC50 is at most 1000 nM.

On to `CC(C)S(=O)(=O)c1ccc(S(=O)(=O)n2nc(N3CCC(F)(F)CC34CC4)c3c(Cl)cccc32)s1` [Compound 12, 4-chloro-3-(7,7-difluoro-4-azaspiro [2.5]octan-4-yl)-1-[(5-isopropylsulfonyl-2-thienyl)sulfonyl]indazole], for which the EC50 was at most 1000 nM.

Turning to `CC(C)S(=O)(=O)c1ccc(S(=O)(=O)n2nc(N3CCC(N(C)C)CC34CC4)c3c(Cl)cccc32)s1` (centres unmarked) [Compound 13, 4-[4-chloro-1-[(5-isopropylsulfonyl-2-thienyl)sulfonyl]indazol-3-yl]-N, N-dimethyl-4-azaspiro [2.5]octan-7-amine], the EC50 was at most 1000 nM.

Regarding `CC(C)S(=O)(=O)c1ccc(S(=O)(=O)n2nc(N3CCN(S(=O)(=O)C(F)(F)F)CC34CC4)c3c(Cl)cccc32)s1` [Compound 14, 4-chloro-1-[(5-isopropylsulfonyl-2-thienyl)sulfonyl]-3-[7-(trifluoromethylsulfonyl)-4,7-diazaspiro [2.5]octan-4-yl]indazole], the concentration for a half-maximal effect (EC50) was at most 1000 nM.

On to `CC(C)S(=O)(=O)c1ccc(S(=O)(=O)n2nc(N3CCN(c4ncc(Cl)cn4)CC34CC4)c3c(F)cccc32)cc1` [Compound 15, 3-(7-(5-chloropyrimidin-2-yl)-4,7-diazaspiro [2.5]octan-4-yl)-4-fluoro-1-((4-(isopropylsulfonyl)phenyl)sulfonyl)-1H-indazole], for which the EC50 is at most 1000 nM.

In the case of `CC(C)S(=O)(=O)c1ccc(S(=O)(=O)n2nc(N3CCN(c4ncc(F)cn4)CC34CC4)c3c(F)cccc32)cc1` [Compound 16, 4-fluoro-3-(7-(5-fluoropyrimidin-2-yl)-4,7-diazaspiro [2.5]octan-4-yl)-1-((4-(isopropylsulfonyl)phenyl)sulfonyl)-1H-indazole], the concentration for a half-maximal effect (EC50) is at most 1000 nM.

With `CC(C)S(=O)(=O)c1ccc(S(=O)(=O)n2nc(N3CCCC34CC4)c3c(Cl)cccc32)s1` [Compound 17, 4-chloro-1-((5-(isopropylsulfonyl)thiophen-2-yl)sulfonyl)-3-(4-azaspiro [2.4]heptan-4-yl)-1H-indazole], the EC50 was at most 1000 nM.

Turning to `CC(C)S(=O)(=O)c1ccc(S(=O)(=O)n2nc(N3CCN(c4ncc(F)cn4)CC3(C)C)c3c(Cl)cccc32)cc1` [Compound 18, 4-chloro-3-(4-(5-fluoropyrimidin-2-yl)-2,2-dimethylpiperazin-1-yl)-1-((4-(isopropylsulfonyl)phenyl)sulfonyl)-1H-indazole], the EC50 was at most 1000 nM.

`CC(C)S(=O)(=O)c1ccc(S(=O)(=O)n2nc(N3CCN(c4ccc(F)cn4)CC34CC4)c3c(F)cc(F)cc32)cc1` [Compound 19, 4,6-difluoro-3-[7-(5-fluoro-2-pyridyl)-4,7-diazaspiro [2.5]octan-4-yl]-1-(4-isopropylsulfonylphenyl) sulfonyl-indazole]: the EC50 is at most 1000 nM.

Turning to `CC(C)S(=O)(=O)c1ccc(S(=O)(=O)n2nc(N3CCN(c4ncc(F)cn4)CC34CC4)c3c(F)cc(F)cc32)cc1` [Compound 20, 4,6-difluoro-3-[7-(5-fluoropyrimidin-2-yl)-4,7-diazaspiro [2.5]octan-4-yl]-1-(4-isopropylsulfonylphenyl) sulfonyl-indazole], the EC50 is at most 1000 nM.

For the molecule `CC(C)(F)S(=O)(=O)c1ccc(S(=O)(=O)n2nc(N3CCN(c4ncc(F)cn4)CC34CC4)c3c(Cl)cccc32)cc1` [Compound 22, 4-chloro-1-((4-((2-fluoropropan-2-yl)sulfonyl)phenyl)sulfonyl)-3-(7-(5-fluoropyrimidin-2-yl)-4,7-diazaspiro [2.5]octan-4-yl)-1H-indazole], the EC50 was at most 1000 nM.

For `CC(C)S(=O)(=O)c1ccc(S(=O)(=O)n2nc(N3CCN(c4ccc(F)cn4)CC34CC4)c3c(Cl)cccc32)cc1` [Compound 23, 4-chloro-3-[7-(5-fluoro-2-pyridyl)-4,7-diazaspiro [2.5]octan-4-yl]-1-(4-isopropylsulfonylphenyl) sulfonyl-indazole], the EC50 is at most 1000 nM.

Consider `CC(C)S(=O)(=O)c1ccc(S(=O)(=O)n2nc(N3CCN(c4ncc(F)cc4F)CC34CC4)c3c(Cl)cccc32)cc1` [Compound 24, 4-chloro-3-[7-(3,5-difluoro-2-pyridyl)-4,7-diazaspiro [2.5]octan-4-yl]-1-(4-isopropylsulfonylphenyl) sulfonyl-indazole], for which the EC50 is at most 1000 nM.

Turning to `CC(C)S(=O)(=O)c1ccc(S(=O)(=O)n2nc(N3CCN(c4ccc(F)cn4)CC34CC4)c3c(F)cccc32)cc1` [Compound 25, 4-fluoro-3-[7-(5-fluoro-2-pyridyl)-4,7-diazaspiro [2.5]octan-4-yl]-1-(4-isopropylsulfonylphenyl) sulfonyl-indazole], the EC50 was at most 1000 nM.

The record behind these values is patent publication US20250333406A1, “SULFONYL CYCLIC DERIVATIVES, AND COMPOSITIONS AND METHODS THEREOF” (Lysoway Therapeutics, Inc., priority 2023, published 2025).
